The record followed here is patent US9284302B2, “Cyclobutyl benzimidazoles as PDE 10 inhibitors” (Merck Sharp & Dohme Corp., priority 2012, dated 2016).

In this assay the target is human PDE10A2 (Homo sapiens (Human), UniProt Q9Y233). Kind of assay: PDE10 fluorescence polarization (IMAP FP) inhibition assay. Type of assay: biochemical. Particulars: apparent inhibition constant; FAM-labeled cAMP substrate 50 nM, room temperature; read-out: PDE10a Ki. The method, then: The activity of the compounds in accordance with the present invention as PDE10 inhibitors may be readily determined without undue experimentation using a fluorescence polarization (FP) methodology that is well known in the art (Huang, W., et al., J. Biomol Screen, 2002, 7: 215).
Sequence of human PDE10A2 (Q9Y233 267-1055): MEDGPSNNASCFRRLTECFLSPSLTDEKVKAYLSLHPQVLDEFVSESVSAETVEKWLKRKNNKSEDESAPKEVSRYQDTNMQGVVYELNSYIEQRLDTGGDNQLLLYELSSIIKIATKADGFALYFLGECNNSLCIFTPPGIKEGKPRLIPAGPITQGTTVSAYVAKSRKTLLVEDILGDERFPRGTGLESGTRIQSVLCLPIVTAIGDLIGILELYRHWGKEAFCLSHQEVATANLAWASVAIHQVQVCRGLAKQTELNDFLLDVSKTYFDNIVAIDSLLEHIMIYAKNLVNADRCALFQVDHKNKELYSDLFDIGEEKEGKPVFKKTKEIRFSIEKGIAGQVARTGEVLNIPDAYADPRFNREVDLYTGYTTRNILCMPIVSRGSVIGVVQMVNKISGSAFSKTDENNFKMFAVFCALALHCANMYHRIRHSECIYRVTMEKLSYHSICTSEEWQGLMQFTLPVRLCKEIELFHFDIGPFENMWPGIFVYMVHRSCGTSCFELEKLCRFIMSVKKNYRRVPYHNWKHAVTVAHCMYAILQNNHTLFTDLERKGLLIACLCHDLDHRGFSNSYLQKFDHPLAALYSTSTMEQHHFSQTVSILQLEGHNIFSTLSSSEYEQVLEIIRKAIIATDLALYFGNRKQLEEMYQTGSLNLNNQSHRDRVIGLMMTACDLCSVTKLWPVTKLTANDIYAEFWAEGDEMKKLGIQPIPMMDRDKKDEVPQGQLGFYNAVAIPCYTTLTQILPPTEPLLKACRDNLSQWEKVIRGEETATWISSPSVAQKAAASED
In a typical experiment the PDE10 inhibitory activity of the compounds of the present invention was determined in accordance with the following experimental method. PDE10A2 was amplified from human fetal brain cDNA (Clontech, Mountain View, Calif.) using a forward primer corresponding to nucleotides 56-77 of human PDE10A2 (Accession No. AF127480, Genbank Identifier 4894716), containing a Kozak consensus sequence, and a reverse primer corresponding to nucleotides 2406-2413 of human PDE10A2 (Accession No. AF127480, Genbank Identifier 4894716). Amplification with Easy-A polymerase (Stratagene, La Jolla, Calif.) was 95° C. for 2 minutes followed by thirty three cycles of 95° C. for 40 seconds, 55° C. for 30 seconds, and 72° C. for 2 minutes 48 seconds. Final extension was 72° C. for 7 minutes. The PCR product was TA cloned into pcDNA3.2-TOPO (Invitrogen, Carlsbad, Calif.) according to standard protocol. AD293 cells with 70-80% confluency were transiently transfected with human PDE10A2/pcDNA3.2-TOPO using Lipofectamine 2000 according to manufacturer specifications (Invitrogen, Carlsbad, Calif.). Cells were harvested 48 hours post-transfection and lysed by sonication (setting 3, 10×5 sec pulses) in a buffer containing 20 mM HEPES, 1 mM EDTA and protease inhibitor cocktail (Roche). Lysate was collected by centrifugation at 75,000 xg for 20 minutes. Supernatant containing the cytoplasmic fraction was used for evaluation of PDE10A2 activity. The fluorescence polarization assay for cyclic nucleotide phosphodiesterases was performed using an IMAP® FP kit supplied by Molecular Devices, Sunnyvale, Calif. (product #R8139). IMAP® technology has been applied previously to phosphodiesterase assays (Huang, W., et al., J. Biomol Screen, 2002, 7: 215). Assays were performed at room temperature in 384-well microtiter plates with an incubation volume of 20.2 μL. Solutions of test compounds were prepared in DMSO and serially diluted with DMSO to yield 8 μL of each of 10 solutions differing by 3-fold in concentration, at 32 serial dilutions per plate. […] 0% of inhibition is determined by using DMSO (1% final concentrations). […]

Turning to `Cc1nc(-n2nc(C)nc2C)cc(C2(O)CC(c3nc4ccccc4n3C)C2)n1` (stereo not shown) [Example 1, 1-(6-(3,5-dimethyl-1H-1,2,4-triazol-1-yl)-2-methylpyrimidin-4-yl)-3-(1-methyl-1H-benzo[d]imidazol-2-yl)cyclobutanol], the Ki was more than 75 nM. For the compound `Cc1nc(-n2nc(C)nc2C)cc(C2(F)CC(c3nc4ccccc4n3C)C2)n1` (stereo not shown) [Example 2, 2-(3-(6-(3,5-dimethyl-1H-1,2,4-triazol-1-yl)-2-methylpyrimidin-4-yl)-3-fluorocyclobutyl)-1-methyl-1H-benzo[d]imidazole], the Ki turned out to be 88 nM. In the case of `Cc1nc(-n2nc(C)nc2C)cc([C@H]2C[C@@H](c3nc4ccccc4n3C)C2)n1` [Example 3, 2-((cis)-3-(6-(3,5-dimethyl-1H-1,2,4-triazol-1-yl)-2-methylpyrimidin-4-yl)cyclobutyl)-1-methyl-1H-benzo[d]imidazole] it was 2.8 nM; in that of `Cc1nc(-n2nc(C)nc2C)cc([C@H]2C[C@H](c3nc4ccccc4n3C)C2)n1` [Example 4, 2-((trans)-3-(6-(3,5-dimethyl-1H-1,2,4-triazol-1-yl)-2-methylpyrimidin-4-yl)cyclobutyl)-1-methyl-1H-benzo[d]imidazole], 4.7 nM.
